This is an account of results in patent EP0037495A1, “Pyrimidyl quinazolines, process for their preparation and pharmaceutical compositions containing them” (CASSELLA Aktiengesellschaft, priority 1980, dated 1981).

The assay has as its system normotonen narkotisierten Ratte. Description: Blood pressure measurement in the normotensive anaesthetised rat. It counts as in vivo. The following applies: mean; for WD min x̄ (Wirkungsdauer): time from onset of change until return to baseline. As for the experimental part: 1. Blutdruckmessung an der normotonen narkotisierten Ratte
Männliche IVANOVAS-Ratten (300 - 340 g) des Stammes SIV 50 wurden durch Applikation von 66 mg/kg a-Chloralose (1,1 % Lösung, 0,6 ml/100 g) und 20 mg:kg Aprobarbital in die Schwanzvene narkotisiert. Die Trachea wurde kannuliert um die Spontanatmung zu erleichtern. Die Messung des Blutdruckes erfolgte blutig über einen in die Rechte A. carotis eingebundenen PE-Schlauch auf konventionelle Weise. Mittels eines Dreiwegehahnes konnte dieser PE-Schlauch zur i.a.-Applikation der Prüfsubstanzen benutzt werden, wobei jeweils ein Volumen von 0,1 ml injiziert wurde. Durch Nachspülen mit 0,9 % NaCl gelangten die Substanzen über die Vertebralarterie auch in Richtung Zentralnervensystem bevor die Verteilung im allgemeinen Kreislauf erfolgte.
Zahlenmäßig ausgewertet wurde die maximale systolische und diastolische Blutdrucksenkung sowie die maximale Änderung der Herzfrequenz. Als Wirkdauer galt die Zeit vom Eintritt der Veränderung bis zum Erreichen des Ausgangswertes.

Turning to `COc1cc2nc(N3CCN(c4c([N+](=O)[O-])c(=O)n(C)c(=O)n4C)CC3)nc(N)c2cc1OC` [*], the “WD min x̄ (Wirkungsdauer)” value (dose 0.01 mg/kg i.a.) is given as 36 min.
`COc1cc2nc(N3CCN(C(=O)c4ccco4)CC3)nc(N)c2cc1OC` [Prazosin]: the “HF Δ s/min x̄” value (maximal change of heart rate, dose 0.1 mg/kg i.a.) was determined as 0 s/min. In addition, for the setting “dose 0.1 mg/kg i.a.”, the “WD min x̄ (Wirkungsdauer)” value was 60 min.
